Assays:
[1] = In vivo metabolism in CD-1 mice (radio-HPLC of plasma and brain); settings: mouse
Procedure: Two non-anesthetized female CD-1 mice (30 and 33 g, 90 days) were injected intravenously with [^18F]11 (28 MBq = 94 nmol/kg and 25 MBq = 78 nmol/kg). The animals were anesthetized by isoflurane inhalation at 28 min p.i. and blood was collected from the retro-orbital plexus, followed by cervical dislocation at 30 min p.i. Immediately afterwards, the brains were isolated, washed twice with isotonic saline and stored on ice. Plasma was obtained from the whole blood sample by centrifugation (8.000 rpm, 2 min, ambient temperature). All samples were weighed and the radioactivity was measured in a dose calibrator (ISOMED 2010 Dose Calibrator, NUVIA Instruments GmbH, Dresden, Germany). Afterwards, the brains were homogenized in 1 mL demineralized water on ice (Potter S, B. Braun Biotech, Melsungen, Germany).
Protein precipitation was performed by the addition of ice-cold ACN/H2O (9:1, v/v) in a ratio of 4:1 (v/v) of organic solvent to plasma or brain homogenate, respectively. The samples were vortexed for 3 min, equilibrated on ice for 3 min, and centrifuged for 10 min at 10,000 rpm and the supernatant collected. The precipitates were washed with 100 μL of the solvent mixture and subjected to the same procedure. The combined supernatants were concentrated at 70 °C under argon flow to a final volume of approximately 100 μL and analysed by analytical radio-HPLC with a gradient system (see radiochemistry general section). The peak corresponding to the radiotracer in the radio-chromatogram was identified by co-injecting the sample with the reference compound 11. To determine the percentage of activity in the supernatants compared to total activity, aliquots of each step as well as the precipitates were quantified by an automated gamma counter (1480 WIZARD, Perkin Elmer, Turku, Finland). For plasma and brain samples recoveries of ≥91% of total activity were obtained.

[2] = Dynamic PET/MR study in CD-1 mouse; format: in vivo; settings: for Uptake (SUVmean): uncorrected for metabolites
Procedure: For the time of the experiments, one female CD-1 mouse (10 weeks; 30.5 g) and one female SPRD rat (9 weeks; 256 g) were kept in a dedicated climatic chamber with free access to water and food under a 12:12 h dark:light cycle at a constant temperature (24 °C). The animals were anesthetized (Anaesthesia Unit U-410, agntho’s, Lidingö, Sweden) with isoflurane (2.0%, 300 mL/min) delivered in a 60% oxygen/40% air mixture (Gas Blender 100 Series, MCQ instruments, Rome, Italy) and their body temperature maintained at 37 °C with a thermal bed system for the duration of the PET studies. A dynamic PET scan (PET/MR 1T, Mediso nanoScan®, Hungary) started 20 s before intravenous injection into the tail vein of [^18F]11 and was performed in mouse for 60 min (4.9 MBq in 150 μL isotonic saline; 20.5 nmol/kg; Am: 8.9 GBq/μmol, EOS) in rat for 30 min (29.7 MBq in 400 μL isotonic saline; 12 nmol/kg; Am: 11 GBq/μmol, EOS). Each PET image was corrected for random coincidences, dead time, scatter and attenuation (AC), based on a whole body (WB) MR scan. The reconstruction parameters for the list mode data were 3D-ordered subset expectation maximization (OSEM), 4 iterations, 6 subsets, energy window: 400–600 keV, coincidence mode: 1–5, ring difference: 81. Preceding the PET scan a T1 weighted WB gradient echo sequence (TR/TE: 20/6.4 ms, NEX: 1, FA: 25, FOV: 64 × 64 mm, Matrix: 128 × 128, STh: 0.5 mm) was performed for AC and anatomical orientation. PET Images were analyzed with PMOD (PMOD Technologies LLC, v. 4.1, Zurich, Switzerland). The respective brain regions were identified using the mouse brain atlas template Ma-Benveniste-Mirrione-T2 or the rat brain atlas template Schwarz-T2. The regional activity data (radioactivity concentration, kBq/mL) were normalized to the injected dose (MBq) and corrected for the animal weight (g) to provide standardized uptake values (SUV, g/mL). Finally, the results of the PETscans are expressed as mean SUV of the respective region of interest ROI.

[3] = 30 min p.i., i.v., n = 2 (individual values)

CCCC(O)c1ccc([18F])c(-c2nnc3c(C)nc4ccc(C5CC5)nc4n23)c1 (stereo not drawn) [[^18F]11]
fraction of non-metabolized radiotracer in brain [1, 3]: 42/50 | fraction of non-metabolized radiotracer in plasma [1, 3]: about 7/11 | radiometabolites in the brain (% of the activity) ([1]; 30 min post injection): ~ 50% | maximum SUV in small intestine ([2]; 60 min p.i.): ~ 35 SUV | SUV in bladder, spleen, muscle, gallbladder, kidney, and liver ([2]; all time points investigated): < 5 SUV | Uptake (SUVmean) ([2]; bladder, 5 min): 0.10 SUV | Uptake (SUVmean) ([2]; bladder, 15 min): 0.08 SUV | Uptake (SUVmean) ([2]; bladder, 30 min): 0.10 SUV | Uptake (SUVmean) ([2]; bladder, 45 min): 0.07 SUV | Uptake (SUVmean) ([2]; bladder, 60 min): 0.06 SUV | Uptake (SUVmean) ([2]; blood, 5 min): 0.93 SUV | Uptake (SUVmean) ([2]; blood, 15 min): 0.56 SUV | Uptake (SUVmean) ([2]; blood, 30 min): 0.46 SUV | Uptake (SUVmean) ([2]; blood, 45 min): 0.34 SUV | Uptake (SUVmean) ([2]; blood, 60 min): 0.32 SUV | Uptake (SUVmean) ([2]; bones, 5 min): 0.71 SUV | Uptake (SUVmean) ([2]; bones, 15 min): 0.47 SUV | Uptake (SUVmean) ([2]; bones, 30 min): 0.31 SUV | Uptake (SUVmean) ([2]; bones, 45 min): 0.23 SUV | Uptake (SUVmean) ([2]; bones, 60 min): 0.20 SUV | Uptake (SUVmean) ([2]; caecum, 5 min): 0.10 SUV | Uptake (SUVmean) ([2]; caecum, 15 min): 0.12 SUV | Uptake (SUVmean) ([2]; caecum, 30 min): 0.11 SUV | Uptake (SUVmean) ([2]; caecum, 45 min): 0.11 SUV | Uptake (SUVmean) ([2]; caecum, 60 min): 0.16 SUV | TAC peak value (SUV) ([2]; cerebellum, at 0.8 min): 0.61 SUV | TAC peak value (SUV) ([2]; cortex, at 2.8 min): 0.47 SUV | Uptake (SUVmean) ([2]; gallbladder, 5 min): 1.41 SUV | Uptake (SUVmean) ([2]; gallbladder, 15 min): 1.78 SUV | Uptake (SUVmean) ([2]; gallbladder, 30 min): 1.46 SUV | Uptake (SUVmean) ([2]; gallbladder, 45 min): 1.32 SUV | Uptake (SUVmean) ([2]; gallbladder, 60 min): 1.34 SUV | Uptake (SUVmean) ([2]; heart, 5 min): 1.11 SUV | Uptake (SUVmean) ([2]; heart, 15 min): 0.65 SUV | Uptake (SUVmean) ([2]; heart, 30 min): 0.52 SUV | Uptake (SUVmean) ([2]; heart, 45 min): 0.37 SUV | Uptake (SUVmean) ([2]; heart, 60 min): 0.35 SUV | TAC peak value (SUV) ([2]; hippocampus, at 2.8 min): 0.70 SUV | Uptake (SUVmean) ([2]; kidney left, 5 min): 2.79 SUV | Uptake (SUVmean) ([2]; kidney left, 15 min): 2.37 SUV | Uptake (SUVmean) ([2]; kidney left, 30 min): 1.61 SUV | Uptake (SUVmean) ([2]; kidney left, 45 min): 1.18 SUV | Uptake (SUVmean) ([2]; kidney left, 60 min): 1.17 SUV | Uptake (SUVmean) ([2]; liver, 5 min): 3.40 SUV | Uptake (SUVmean) ([2]; liver, 15 min): 4.16 SUV | Uptake (SUVmean) ([2]; liver, 30 min): 3.62 SUV | Uptake (SUVmean) ([2]; liver, 45 min): 3.17 SUV | Uptake (SUVmean) ([2]; liver, 60 min): 3.00 SUV | Uptake (SUVmean) ([2]; lung, 5 min): 0.65 SUV | Uptake (SUVmean) ([2]; lung, 15 min): 0.43 SUV | Uptake (SUVmean) ([2]; lung, 30 min): 0.33 SUV | Uptake (SUVmean) ([2]; lung, 45 min): 0.25 SUV | Uptake (SUVmean) ([2]; lung, 60 min): 0.25 SUV | Uptake (SUVmean) ([2]; muscle, 5 min): 0.63 SUV | Uptake (SUVmean) ([2]; muscle, 15 min): 0.49 SUV | Uptake (SUVmean) ([2]; muscle, 30 min): 0.35 SUV | Uptake (SUVmean) ([2]; muscle, 45 min): 0.26 SUV | Uptake (SUVmean) ([2]; muscle, 60 min): 0.21 SUV | Uptake (SUVmean) ([2]; small intestine, 5 min): 2.10 SUV | Uptake (SUVmean) ([2]; small intestine, 15 min): 9.48 SUV | Uptake (SUVmean) ([2]; small intestine, 30 min): 20.64 SUV | Uptake (SUVmean) ([2]; small intestine, 45 min): 29.65 SUV | Uptake (SUVmean) ([2]; small intestine, 60 min): 35.11 SUV | Uptake (SUVmean) ([2]; spleen, 5 min): 0.48 SUV | Uptake (SUVmean) ([2]; spleen, 15 min): 0.59 SUV | Uptake (SUVmean) ([2]; spleen, 30 min): 0.45 SUV | Uptake (SUVmean) ([2]; spleen, 45 min): 0.30 SUV | Uptake (SUVmean) ([2]; spleen, 60 min): 0.24 SUV | Uptake (SUVmean) ([2]; stomach, 5 min): 0.15 SUV | Uptake (SUVmean) ([2]; stomach, 15 min): 0.18 SUV | Uptake (SUVmean) ([2]; stomach, 30 min): 0.19 SUV | Uptake (SUVmean) ([2]; stomach, 45 min): 0.17 SUV | Uptake (SUVmean) ([2]; stomach, 60 min): 0.13 SUV | TAC peak value (SUV) ([2]; striatum, at 2.8 min): 0.71 SUV | peak value of brain time-activity curve (SUV) ([2]; whole brain, at 2.8 min p.i.): 0.55 SUV
